The text below walks through data of patent US20080269342A1, “Pleuromutilin Derivatives and Its Use” (priority 2005, published 2008).

For one assay, the system named is L. pneumophila. The format is cell-based. To be noted: atypical pathogen.
The test system of a further assay is M. pneumoniae. As to the kind of experiment: in vitro activity against atypical pathogens. As to conditions: atypical pathogen. The class given is cell-based.
For assay [1], the system named is representative Gram-positive and Gram-negative pathogens. As to the kind of experiment: in vitro activity against representative pathogens. The format is cell-based. To be noted: pathogens associated with respiratory tract and skin and skin structure infections, including isolates resistant to existing classes of antimicrobials.
Another assay deals with H. influenzae. As to the kind of experiment: in vitro antibacterial activity. The format is cell-based. As to conditions: primary respiratory pathogen.
In another assay the test system is S. pneumoniae. As to the kind of experiment: in vitro antibacterial activity. To be noted: primary respiratory pathogen. The format is cell-based.
A further assay relates to S. aureus. Kind of assay: in vitro antibacterial activity. The format is cell-based.
For a further assay, the system named is anaerobic organisms. Kind of assay: in vitro activity against anaerobic organisms. The format is cell-based.
A further assay relates to N. gonorrhoeae. Kind of assay: in vitro activity against Neisserria sp. The class given is cell-based. To be noted: both ciprofloxacin susceptible and resistant.
Another assay has as its system N. meningitidis. As to the kind of experiment: in vitro activity against Neisserria sp. The class given is cell-based.
For the next assay, the system named is C. pneumoniae. As to the kind of experiment: in vitro activity against atypical pathogens. The format is cell-based. To be noted: atypical pathogen.
For a further assay, the system named is F. tularensis. The class given is cell-based. As to conditions: biothreat organism.
For assay [2], the system named is isolates carrying resistance determinants to other antibiotics. As to the kind of experiment: in vitro activity against resistant isolates of respiratory pathogens. The class given is cell-based. As to conditions: penicillin-, macrolide-, methicillin- or levofloxacin-resistant phenotypes.
A further assay has as its system S. pyogenes. As to the kind of experiment: in vitro antibacterial activity. The format is cell-based.
Another assay relates to M. catarrhalis. Kind of assay: in vitro antibacterial activity. The format is cell-based. To be noted: primary respiratory pathogen.
In assay [3] the test system is representative Gram-positive and Gram-negative pathogens. Kind of assay: in vivo activity against representative pathogens. As to conditions: pathogens associated with respiratory tract and skin and skin structure infections, including isolates resistant to existing classes of antimicrobials.
Setting [4] is: primary respiratory pathogen, primary pathogen of skin and skin structure infections.

Structures are written as SMILES.

As to `C=C[C@]1(C)C[C@@H](OC(=O)NC(=O)O[C@H]2C[C@H](N)C2)[C@]2(C)[C@H](C)CC[C@]3(CCC(=O)[C@H]32)[C@@H](C)[C@@H]1O` [Compound I, trans-3-aminocyclobutyl (1S,2R,3S,4S,6R,7R,8R,14R)-4-ethenyl-3-hydroxy-2,4,7,14-tetramethyl-9-oxotricyclo[5.4.3.01,8]tetradec-6-yl imidodicarbonate], the in vitro activity entry in the assay with L. pneumophila is on record as “good in vitro activity”; in the assay on M. pneumoniae, “good in vitro activity”; in assay [1] it was “good”; in the assay on anaerobic organisms it was “good in vitro activity”; in the assay with N. gonorrhoeae it was “good in vitro activity”; with N. meningitidis, “good in vitro activity”. Moreover, the in vitro activity entry in the assay on C. pneumoniae and in the assay with F. tularensis was “good in vitro activity” each time. Moreover, the “in vitro antibacterial activity” value in the assay with H. influenzae, in the assay with S. pneumoniae, in the assay on S. aureus (setting [4]), in the assay with S. pyogenes (setting [4]) and in the assay on M. catarrhalis was “good in vitro antibacterial activity” throughout. Also, the “activity against isolates carrying resistance determinants to other antibiotics” value in the assay with S. aureus (S. aureus isolates, penicillin-, macrolide-, methicillin- or levofloxacin-resistant phenotypes) was “retained”; in [2] it was “activity”; in the assay with S. pyogenes (S. pyogenes isolates, penicillin-, macrolide-, methicillin- or levofloxacin-resistant phenotypes), “retained”. Also, in assay [3], the in vivo activity result was “good”.
